Experimental data from US12344610B2, “APOL1 inhibitors and methods of use” (Maze Therapeutics, Inc., priority 2022, dated 2025).

Legend:
[1] = test system: HEK293 clonal cell line overexpressing APOL1 G1; test: APOL1 G1 HEK293 cell rescue assay (Example B3); assay type: cell-based; settings: Homo sapiens, HEK293, HEK293 clonal line overexpressing APOL1 G1; geometric mean of at least 2 runs; † = single run; ¥ = concentration at 50% rescue estimated (no sigmoidal curve)
How it was run: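 HEK293 clonal line overexpressing APOL1 G1; EC50 is half-maximal reversal of APOL1-induced cell death. Values are the geometric mean of ≥2 runs on separate days, each run the average of duplicate wells. Where no sigmoidal curve could be fitted, the concentration giving 50% rescue was estimated.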

[2] = test system: Trypanosoma brucei Lister 427 VSG221 with APOL1 G0 recombinant protein; test: APOL1 G0 trypanosome cell rescue assay (Example B5); assay type: cell-based; settings: Trypanosoma brucei, 20 h, read-out: APOL1 G0 Trypanosome Rescue EC50, Trypanosoma brucei Lister 427 VSG221 with APOL1 G0 recombinant protein, 20 hours, CellTiter-Glo; geometric mean of at least 2 assay runs; † = single assay run
How it was run: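 Compounds in duplicate 2-fold, 11-point series with 0.4% DMSO final. Next, tag-free mature APOL1 variant protein went in from a 2 μg/mL solution, then trypanosomes to 250 per well. Plates incubated 20 h humidified at 37° C, equilibrated to room temperature, and CellTiter-Glo added for luminescence.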

CS(=O)(=O)C1(c2c(F)cc(OCCN3CCC4(CC3)C(=O)Nc3ccc(Cl)cc34)cc2F)COC1 [Compound 136, 5-chloro-1′-{2-[3,5-difluoro-4-(3-methanesulfonyloxetan-3-yl)phenoxy]ethyl}-1,2-dihydrospiro[indole-3,4′-piperidin]-2-one]
EC50 [1]: 49.4 nM
EC50 [2]: 31.5 nM

CC(c1c(F)cc(OCCN2CCC3(CC2)C(=O)Nc2ccc(C#N)cc23)cc1F)S(C)(=O)=O (stereo not drawn) [Compound 137, 1′-{2-[3,5-difluoro-4-(1-methanesulfonylethyl)phenoxy]ethyl}-2-oxo-1,2-dihydrospiro[indole-3,4′-piperidine]-5-carbonitrile]
EC50 [1]: 249 nM
EC50 [2]: 322 nM

Cc1cc(OCCN2CCC3(CC2)C(=O)Nc2ccc(C#N)cc23)cnc1S(C)(=O)=O [Compound 140, 1′-{2-[(6-methanesulfonyl-5-methylpyridin-3-yl)oxy]ethyl}-2-oxo-1,2-dihydrospiro[indole-3,4′-piperidine]-5-carbonitrile]
EC50 [1]: 600 nM
EC50 [2]: 408 nM

CC(C)N1C(=O)Cc2cc(OCCN3CCC4(CC3)C(=O)Nc3ccc(C#N)cc34)ccc21 [Compound 144, 2-oxo-1′-(2-{[2-oxo-1-(propan-2-yl)-2,3-dihydro-1H-indol-5-yl]oxy}ethyl)-1,2-dihydrospiro[indole-3,4′-piperidine]-5-carbonitrile]
EC50 [1]: 246 nM
EC50 [2]: 224 nM

CC(C)N1C(=O)Cc2cc(OCCN3CCC4(CC3)C(=O)Nc3ccc(Cl)cc34)ccc21 [Compound 145, 5-chloro-1′-(2-{[2-oxo-1-(propan-2-yl)-2,3-dihydro-1H-indol-5-yl]oxy}ethyl)-1,2-dihydrospiro[indole-3,4′-piperidin]-2-one]
EC50 [1]: 98.5 nM
EC50 [2]: 86.5 nM

CN1Cc2cc(OCCN3CCC4(CC3)C(=O)Nc3ccc(Cl)cc34)ccc2C1=O [Compound 146, 5-chloro-1′-{2-[(2-methyl-1-oxo-2,3-dihydro-1H-isoindol-5-yl)oxy]ethyl}-1,2-dihydrospiro[indole-3,4′-piperidin]-2-one]
EC50 [1]: 221 nM
EC50 [2]: 346 nM

CN=S(C)(=O)c1ccc(OCCN2CCC3(CC2)C(=O)Nc2ccc(Cl)cc23)cc1 (stereo not drawn) [Compound 147, 5-chloro-1′-(2-{4-[methyl(methylimino)oxo-λ^6-sulfanyl]phenoxy}ethyl)-1,2-dihydrospiro[indole-3,4′-piperidin]-2-one]
EC50 [1]: 183 nM
EC50 [2]: 155 nM

CN=S(C)(=O)c1ccc(OCCN2CCC3(CC2)C(=O)Nc2ccc(C#N)cc23)cc1 (stereo not drawn) [Compound 150, 1′-(2-{4-[methyl(methylimino)oxo-λ^6-sulfanyl]phenoxy}ethyl)-2-oxo-1,2-dihydrospiro[indole-3,4′-piperidine]-5-carbonitrile]
EC50 [1]: 1540 nM
EC50 [2]: 1440 nM

CN1CCc2cc(OCCN3CCC4(CC3)C(=O)Nc3ccc(Cl)cc34)ccc2S1(=O)=O [Compound 153, 6-(2-{5-chloro-2-oxo-1,2-dihydrospiro[indole-3,4′-piperidin]-1′-yl}ethoxy)-2-methyl-3,4-dihydro-2H-1λ^6,2-benzothiazine-1,1-dione]
EC50 [1]: 96.2 nM
EC50 [2]: 52.2 nM

CN1CCc2cc(OCCN3CCC4(CC3)C(=O)Nc3ccc(C#N)cc34)ccc2S1(=O)=O [Compound 154, 1′-{2-[(2-methyl-1,1-dioxo-3,4-dihydro-2H-1λ^6,2-benzothiazin-6-yl)oxy]ethyl}-2-oxo-1,2-dihydrospiro[indole-3,4′-piperidine]-5-carbonitrile]
EC50 [1]: 252 nM
EC50 [2]: 328 nM

CS(=O)(=O)c1ccc(OCCN2CCC3(CC2)C(=O)Nc2ccc(Cl)cc23)cc1Cl [Compound 155, 5-chloro-1′-[2-(3-chloro-4-methanesulfonylphenoxy)ethyl]-1,2-dihydrospiro[indole-3,4′-piperidin]-2-one]
EC50 [1]: 67 nM
EC50 [2]: 25.9 nM

CS(=O)(=O)c1ccc(OCCN2CCC3(CC2)C(=O)Nc2ccc(C#N)cc23)cc1Cl [Compound 156, 1′-[2-(3-chloro-4-methanesulfonylphenoxy)ethyl]-2-oxo-1,2-dihydrospiro[indole-3,4′-piperidine]-5-carbonitrile]
EC50 [1]: 153 nM
EC50 [2]: 96.6 nM

CC(C)(C#N)c1ccc(OCCN2CCC3(CC2)C(=O)Nc2ccc(C#N)cc23)cc1 [Compound 157, 1′-{2-[4-(1-cyano-1-methylethyl)phenoxy]ethyl}-2-oxo-1,2-dihydrospiro[indole-3,4′-piperidine]-5-carbonitrile]
EC50 [1]: 152 nM
EC50 [2]: 109 nM

CC1(S(=O)(=O)c2ccc(OCCN3CCC4(CC3)C(=O)Nc3ccc(Cl)cc34)cn2)COC1 [Compound 158, 5-chloro-1′-[2-({6-[(3-methyloxetan-3-yl)sulfonyl]pyridin-3-yl}oxy)ethyl]-1,2-dihydrospiro[indole-3,4′-piperidin]-2-one]
EC50 [1]: 252 nM
EC50 [2]: 94.2 nM

CS(=O)(=O)C1(c2ccc(OCCN3CCC4(CC3)C(=O)N(CCO)c3ccc(Cl)cc34)cc2)COC1 [Compound 160, 5-chloro-1-(2-hydroxyethyl)-1′-{2-[4-(3-methanesulfonyloxetan-3-yl)phenoxy]ethyl}-1,2-dihydrospiro[indole-3,4′-piperidin]-2-one]
EC50 [1]: 244 nM
EC50 [2]: 109 nM

Cc1cc(OCCN2CCC3(CC2)C(=O)Nc2ccc(Cl)cc23)cnc1S(C)(=O)=O [Compound 161, 5-chloro-1′-{2-[(6-methanesulfonyl-5-methylpyridin-3-yl)oxy]ethyl}-1,2-dihydrospiro[indole-3,4′-piperidin]-2-one]
EC50 [1]: 135 nM
EC50 [2]: 76.3 nM

O=C1CCc2cc(OCCN3CCC4(CC3)C(=O)Nc3ccc(Cl)cc34)ccc2N1CCO [Compound 162, 5-chloro-1′-(2-{[1-(2-hydroxyethyl)-2-oxo-1,2,3,4-tetrahydroquinolin-6-yl]oxy}ethyl)-1,2-dihydrospiro[indole-3,4′-piperidin]-2-one]
EC50 [1]: 174 nM
EC50 [2]: 143 nM

CS(=O)(=O)c1ccc(OCCN2CCC3(CC2)C(=O)Nc2ccc(Cl)cc23)cc1OC(F)F [Compound 163, 5-chloro-1′-{2-[3-(difluoromethoxy)-4-methanesulfonylphenoxy]ethyl}-1,2-dihydrospiro[indole-3,4′-piperidin]-2-one]
EC50 [1]: 113 nM
EC50 [2]: 55.9 nM

CS(=O)(=O)c1ccc(OCCN2CCC3(CC2)C(=O)Nc2ccc(C#N)cc23)cc1OC(F)F [Compound 164, 1′-{2-[3-(difluoromethoxy)-4-methanesulfonylphenoxy]ethyl}-2-oxo-1,2-dihydrospiro[indole-3,4′-piperidine]-5-carbonitrile]
EC50 [1]: 316 nM
EC50 [2]: 211 nM

CS(=O)(=O)C1(c2ccc(OCCN3CCC4(CC3)C(=O)Nc3ccc(Cl)cc34)cc2C(F)(F)F)COC1 [Compound 165, 5-chloro-1′-{2-[4-(3-methanesulfonyloxetan-3-yl)-3-(trifluoromethyl)phenoxy]ethyl}-1,2-dihydrospiro[indole-3,4′-piperidin]-2-one]
EC50 [1]: 59 nM
EC50 [2]: 28.7 nM

CS(=O)(=O)C1(c2ccc(OCCN3CCC4(CC3)C(=O)Nc3ccc(C#N)cc34)cc2C(F)(F)F)COC1 [Compound 166, 1′-{2-[4-(3-methanesulfonyloxetan-3-yl)-3-(trifluoromethyl)phenoxy]ethyl}-2-oxo-1,2-dihydrospiro[indole-3,4′-piperidine]-5-carbonitrile]
EC50 [1]: 163 nM
EC50 [2]: 94 nM

O=C1Nc2ccc(Cl)cc2C12CCN(CCOc1ccc3c(c1)CCNS3(=O)=O)CC2 [Compound 167, 6-(2-{5-chloro-2-oxo-1,2-dihydrospiro[indole-3,4′-piperidin]-1′-yl}ethoxy)-3,4-dihydro-2H-1λ^6,2-benzothiazine-1,1-dione]
EC50 [1]: 138 nM
EC50 [2]: 98.4 nM

N#Cc1ccc2c(c1)C1(CCN(CCOc3ccc4c(c3)CCNS4(=O)=O)CC1)C(=O)N2 [Compound 168, 1′-{2-[(1,1-dioxo-3,4-dihydro-2H-1λ^6,2-benzothiazin-6-yl)oxy]ethyl}-2-oxo-1,2-dihydrospiro[indole-3,4′-piperidine]-5-carbonitrile]
EC50 [1]: > 7840 nM
EC50 [2]: 496 nM

CN1C(=O)Cc2cc(OCCN3CCC4(CC3)C(=O)Nc3ccc(C#N)cc34)cc(F)c21 [Compound 169, 1′-{2-[(7-fluoro-1-methyl-2-oxo-2,3-dihydro-1H-indol-5-yl)oxy]ethyl}-2-oxo-1,2-dihydrospiro[indole-3,4′-piperidine]-5-carbonitrile]
EC50 [1]: 1030 nM
EC50 [2]: 619 nM

CC1(Oc2ncc(OCCN3CCC4(CC3)C(=O)Nc3ccc(Cl)cc34)cn2)COC1 [Compound 172, 5-chloro-1′-[2-({2-[(3-methyloxetan-3-yl)oxy]pyrimidin-5-yl}oxy)ethyl]-1,2-dihydrospiro[indole-3,4′-piperidin]-2-one]
EC50 [1]: 188 nM
EC50 [2]: 246 nM

CCS(=O)(=O)C1(c2ccc(OCCN3CCC4(CC3)C(=O)Nc3ccc(C#N)cc34)cc2)COC1 [Compound 174, 1′-(2-{4-[3-(ethanesulfonyl)oxetan-3-yl]phenoxy}ethyl)-2-oxo-1,2-dihydrospiro[indole-3,4′-piperidine]-5-carbonitrile]
EC50 [1]: 253 nM
EC50 [2]: 401 nM

CS(=O)(=O)C1(c2ccc(OCCN3CCC4(CC3)C(=O)Nc3ccc(Cl)cc34)cc2)CCC1 [Compound 180, 5-chloro-1′-{2-[4-(1-methanesulfonylcyclobutyl)phenoxy]ethyl}-1,2-dihydrospiro[indole-3,4′-piperidin]-2-one]
EC50 [1]: 74.9 nM
EC50 [2]: 35.2 nM
